Data: patent publication US12247010B2, “Tubulin inhibitors” (LIN BIOSCIENCE PTY LTD., priority 2017, dated 2025)
pIC50: −log10 of the molar value.

System: U87MG cells
Assay: Cytotoxicity assay (cell viability, CellTiter 96 Aqueous MTS)
Type: cell-based
Conditions: Homo sapiens, U-87 MG, 72 h, 72 hours incubation, starting concentration 50 uM, 9 point half log dilution, average where tested repeatedly
Protocol: Example 3: Cytotoxicity Assay
U87MG cells were plated at a density of 7×10^3 cells/well and allowed to seed overnight. Cells were then treated with compounds from Table 1 or CMPD-1 (4-(2′-fluoro-[1,1′-biphenyl]-4-yl)-N-(4-hydroxyphenyl)butanamide as a positive control) were added to cells at a starting concentration of 50 uM, with a 9 point half log dilution, and incubated for 72 hours prior to viability determination. IC50 values were calculated from cell viability as measured using the CellTiter 96® Aqueous MTS reagent from Promega©, and the results are shown in Table 2.

| Structure (SMILES) | pIC50 |
| --- | --- |
| O=C(CCCc1ccc(-c2ccccc2F)cc1)Nc1ccc2[nH]ncc2c1 [Compound 4, 4-(2′-fluoro-[1,1′-biphenyl]-4-yl)-N-(1H-indazol-5-yl)butanamide] | 5.30 to 6.00 |
| O=C(CCCc1ccc(-c2ccccc2F)cc1)Nc1ccc2[nH]ccc2c1 [Compound 6, 4-(2′-fluoro-[1,1′-biphenyl]-4-yl)-N-(1H-indol-5-yl)butanamide] | 5.30 to 6.00 |
| O=C(CCCc1ccc(-c2ccccc2F)cc1)Nc1ccc(O)nc1 [Compound 8, 4-(2′-fluoro-[1,1′-biphenyl]-4-yl)-N-(6-hydroxypyridin-3-yl)butanamide] | < 5.30 |
| O=C(CCCc1ccc(-c2ccccc2F)cc1)Nc1cccnc1 [Compound 37, 4-(2′-fluoro-[1,1′-biphenyl]-4-yl)-N-(pyridin-3-yl)butanamide] | 6.00 to 6.30 |
| O=C(CCCc1ccc(-c2ccccc2F)cc1)Nc1nccs1 [Compound 38, 4-(2′-fluoro-[1,1′-biphenyl]-4-yl)-N-(thiazol-2-yl)butanamide] | < 5.30 |
| COc1ccc(NC(=O)CCCc2ccc(-c3ccccc3F)cc2)cn1 [Compound 39, 4-(2′-fluoro-[1,1′-biphenyl]-4-yl)-N-(6-methoxypyridin-3-yl)butanamide] | < 5.30 |
| O=C(CCCc1ccc(-c2ccccc2F)cc1)Nc1ccccn1 [Compound 40, 4-(2′-fluoro-[1,1′-biphenyl]-4-yl)-N-(pyridin-2-yl)butanamide] | < 5.30 |
| O=C(CCCc1ccc(-c2ccccc2F)cc1)NCc1cccnc1 [Compound 41, 4-(2′-fluoro-[1,1′-biphenyl]-4-yl)-N-(pyridin-3-ylmethyl)butanamide] | < 5.30 |
| O=C(CCCc1ccc(-c2ccccc2F)cc1)NCc1ccncc1 [Compound 42, 4-(2′-fluoro-[1,1′-biphenyl]-4-yl)-N-(pyridin-4-ylmethyl)butanamide] | 5.30 to 6.00 |
| O=C(CCCc1ccc(-c2ccccc2F)cc1)NCc1ccccn1 [Compound 43, 4-(2′-fluoro-[1,1′-biphenyl]-4-yl)-N-(pyridin-2-ylmethyl)butanamide] | 5.30 to 6.00 |
| COc1ccc(CNC(=O)CCCc2ccc(-c3ccccc3F)cc2)cc1 [Compound 44, 4-(2′-fluoro-[1,1′-biphenyl]-4-yl)-N-(4-methoxybenzyl)butanamide] | 6.00 to 6.30 |
| Cc1ccc(NC(=O)CCCc2ccc(-c3ccccc3F)cc2)cn1 [Compound 45, 4-(2′-fluoro-[1,1′-biphenyl]-4-yl)-N-(6-methylpyridin-3-yl)butanamide] | > 6.30 |
| O=C(CCCc1ccc(-c2ccccc2F)cc1)Nc1cn[nH]c1 [Compound 47, 4-(2′-fluoro-[1,1′-biphenyl]-4-yl)-N-(1H-pyrazol-4-yl)butanamide] | < 5.30 |
| Cn1cc(CNC(=O)CCCc2ccc(-c3ccccc3F)cc2)cn1 [Compound 48, 4-(2′-fluoro-[1,1′-biphenyl]-4-yl)-N-((1-methyl-1H-pyrazol-4-yl)methyl)butanamide] | 5.30 to 6.00 |
| O=C(CCCc1ccc(-c2ccccc2F)cc1)NCC1CC1 [Compound 50, N-(cyclopropylmethyl)-4-(2′-fluoro-[1,1′-biphenyl]-4-yl)butanamide] | 5.30 to 6.00 |
| O=C(CCCc1ccc(-c2ccccc2F)cc1)Nc1ccc(C(F)(F)F)nc1 [Compound 51, 4-(2′-fluoro-[1,1′-biphenyl]-4-yl)-N-(6-(trifluoromethyl)pyridin-3-yl)butanamide] | < 5.30 |
| CN(C(=O)CCCc1ccc(-c2ccccc2F)cc1)c1cccnc1 [Compound 52, 4-(2′-fluoro-[1,1′-biphenyl]-4-yl)-N-methyl-N-(pyridin-3-yl)butanamide] | < 5.30 |

| Structure (SMILES) | pIC50 |
| --- | --- |
| O=C(CCCc1ccc(-c2ccccc2F)cc1)Nc1ccc2c(c1)OCC(=O)N2 [Compound 53, 4-(2′-fluoro-[1,1′-biphenyl]-4-yl)-N-(3-oxo-3,4-dihydro-2H-benzo[b][1,4]oxazin-7-yl)butanamide] | 6.00 to 6.30 |
| O=C(CCCc1ccc(-c2ccccc2F)cc1)NC1CCC(F)(F)CC1 [Compound 54, N-(4,4-difluorocyclohexyl)-4-(2′-fluoro-[1,1′-biphenyl]-4-yl)butanamide] | < 5.30 |
| O=C(CCCc1ccc(-c2ccccc2F)cc1)NC1COC1 [Compound 55, 4-(2′-fluoro-[1,1′-biphenyl]-4-yl)-N-(oxetan-3-yl)butanamide] | 5.30 to 6.00 |
| O=C(CCCc1ccc(-c2ccccc2F)cc1)Nc1ccc2[nH]c(=O)[nH]c2c1 [Compound 58, 4-(2′-fluoro-[1,1′-biphenyl]-4-yl)-N-(2-oxo-2,3-dihydro-1H-benzo[d]imidazol-5-yl)butanamide] | < 5.30 |
| O=C(CCCc1ccc(-c2ccccc2F)cc1)Nc1ccc2c(c1)CNC2=O [Compound 59, 4-(2′-fluoro-[1,1′-biphenyl]-4-yl)-N-(1-oxoisoindolin-5-yl)butanamide] | < 5.30 |
| O=C(CCCc1ccc(-c2ccccc2F)cc1)NC1CCC(O)CC1 (stereo not shown) [Compound 62, 4-(2′-fluoro-[1,1′-biphenyl]-4-yl)-N-(4-hydroxycyclohexyl)butanamide] | < 5.30 |
| O=C(CCCc1ccc(-c2ccccc2F)cc1)Nc1ccon1 [Compound 63, 4-(2′-fluoro-[1,1′-biphenyl]-4-yl)-N-(isoxazol-3-yl)butanamide] | < 5.30 |
| O=C(NCCCc1ccc(-c2ccccc2F)cc1)c1cccnc1 [Compound 64, N-(3-(2′-fluoro-[1,1′-biphenyl]-4-yl)propyl)nicotinamide] | > 6.30 |
| O=C(NCCCc1ccc(-c2ccccc2F)cc1)c1cccnn1 [Compound 65, N-(3-(2′-fluoro-[1,1′-biphenyl]-4-yl)propyl)pyridazine-3-carboxamide] | < 5.30 |
| O=C(NCCCc1ccc(-c2ccccc2F)cc1)c1cn[nH]c1 [Compound 66, N-(3-(2′-fluoro-[1,1′-biphenyl]-4-yl)propyl)-1H-pyrazole-4-carboxamide] | < 5.30 |
| O=C(NCCCc1ccc(-c2ccccc2F)cc1)c1cncnc1 [Compound 67, N-(3-(2′-fluoro-[1,1′-biphenyl]-4-yl)propyl)pyrimidine-5-carboxamide] | > 6.30 |
| O=C(NCCCc1ccc(-c2ccccc2F)cc1)c1ccc2[nH]nnc2c1 [Compound 70, N-(3-(2′-fluoro-[1,1′-biphenyl]-4-yl)propyl)-1H-benzo[d][1,2,3]triazole-5-carboxamide] | < 5.30 |
| Cc1ccc(C(=O)NCCCc2ccc(-c3ccccc3F)cc2)cn1 [Compound 71, N-(3-(2′-fluoro-[1,1′-biphenyl]-4-yl)propyl)-6-methylnicotinamide] | > 6.30 |
| O=C(NCCCc1ccc(-c2ccccc2F)cc1)c1ccc2[nH]ncc2c1 [Compound 73, N-(3-(2′-fluoro-[1,1′-biphenyl]-4-yl)propyl)-1H-indazole-5-carboxamide] | 5.30 to 6.00 |
| O=C(NCCCc1ccc(-c2ccccc2F)cc1)c1ccc2[nH]ccc2c1 [Compound 74, N-(3-(2′-fluoro-[1,1′-biphenyl]-4-yl)propyl)-1H-indole-5-carboxamide] | 6.00 to 6.30 |
| O=C(NCCCc1ccc(-c2ccccc2F)cc1)C1CC(F)(F)C1 [Compound 75, 3,3-difluoro-N-(3-(2′-fluoro-[1,1′-biphenyl]-4-yl)propyl)cyclobutane-1-carboxamide] | < 5.30 |
| O=C(NCCCc1ccc(-c2ccccc2F)cc1)c1cnccn1 [Compound 76, N-(3-(2′-fluoro-[1,1′-biphenyl]-4-yl)propyl)pyrazine-2-carboxamide] | < 5.30 |
